Assay results: ChEMBL document CHEMBL1201862, “PubChem BioAssay data set” (2004)
Activity calls are given as the source filed them.

Columns and labels:
[1] = target: T1, Corticotropin-releasing factor receptor 2/Corticotropin-releasing factor-binding protein (Homo sapiens, UniProt P24387+Q13324); assay: Dose Response confirmation of uHTS hits for small molecule antagonists of the CRF-binding protein and CRF-R2 receptor complex.; type: functional; settings: read-out: IC50_Mean
T1 sequence (Q13324 whole entry): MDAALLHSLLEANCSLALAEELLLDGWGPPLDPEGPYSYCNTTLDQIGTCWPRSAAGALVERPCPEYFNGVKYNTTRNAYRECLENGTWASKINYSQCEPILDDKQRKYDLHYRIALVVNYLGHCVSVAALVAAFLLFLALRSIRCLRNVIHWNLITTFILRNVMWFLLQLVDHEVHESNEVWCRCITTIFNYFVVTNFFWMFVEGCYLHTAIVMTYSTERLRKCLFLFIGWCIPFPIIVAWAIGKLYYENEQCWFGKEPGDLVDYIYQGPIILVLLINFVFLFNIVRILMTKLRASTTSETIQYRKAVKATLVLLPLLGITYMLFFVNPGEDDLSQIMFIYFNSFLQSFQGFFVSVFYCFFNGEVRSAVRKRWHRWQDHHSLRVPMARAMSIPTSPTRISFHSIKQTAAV
T1 sequence (P24387 whole entry): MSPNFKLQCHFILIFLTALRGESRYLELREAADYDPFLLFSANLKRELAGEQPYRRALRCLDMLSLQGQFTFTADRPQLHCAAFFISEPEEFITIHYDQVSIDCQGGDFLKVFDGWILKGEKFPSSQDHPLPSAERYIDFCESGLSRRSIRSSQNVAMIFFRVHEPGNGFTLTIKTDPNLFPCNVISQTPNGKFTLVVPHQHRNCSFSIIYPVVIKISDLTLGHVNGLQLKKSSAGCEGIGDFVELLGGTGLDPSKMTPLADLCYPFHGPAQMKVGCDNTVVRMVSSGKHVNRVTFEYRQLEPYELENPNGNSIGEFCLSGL

[2] = target: T1, Corticotropin-releasing factor receptor 2/Corticotropin-releasing factor-binding protein; assay: activators of CRF receptor 2 with binding protein – uHTS hits, confirmation (AID 602473); type: functional; settings: read-out: EC50_Mean
Cytochrome P450 2C9 = Cytochrome P450 2C9 (Homo sapiens, UniProt P11712)
Chain of Cytochrome P450 2C9 (P11712 whole entry): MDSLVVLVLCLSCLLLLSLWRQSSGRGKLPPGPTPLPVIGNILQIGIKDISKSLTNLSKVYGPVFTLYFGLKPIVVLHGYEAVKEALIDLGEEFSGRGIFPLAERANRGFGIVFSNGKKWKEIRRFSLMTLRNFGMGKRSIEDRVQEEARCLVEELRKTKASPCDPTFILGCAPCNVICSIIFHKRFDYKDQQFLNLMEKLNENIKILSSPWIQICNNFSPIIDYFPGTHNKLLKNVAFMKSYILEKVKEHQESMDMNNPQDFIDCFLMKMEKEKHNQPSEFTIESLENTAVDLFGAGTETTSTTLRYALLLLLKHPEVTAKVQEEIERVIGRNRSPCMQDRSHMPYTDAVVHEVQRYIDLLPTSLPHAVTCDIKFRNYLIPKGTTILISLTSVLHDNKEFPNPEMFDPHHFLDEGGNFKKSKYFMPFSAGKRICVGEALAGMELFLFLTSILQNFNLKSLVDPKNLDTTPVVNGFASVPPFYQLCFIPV

Cytochrome P450 2D6 = Cytochrome P450 2D6 (Homo sapiens, UniProt P10635);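 further: CYP2D6 member of a cytochrome P450 panel assay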
Chain of Cytochrome P450 2D6 (P10635 whole entry): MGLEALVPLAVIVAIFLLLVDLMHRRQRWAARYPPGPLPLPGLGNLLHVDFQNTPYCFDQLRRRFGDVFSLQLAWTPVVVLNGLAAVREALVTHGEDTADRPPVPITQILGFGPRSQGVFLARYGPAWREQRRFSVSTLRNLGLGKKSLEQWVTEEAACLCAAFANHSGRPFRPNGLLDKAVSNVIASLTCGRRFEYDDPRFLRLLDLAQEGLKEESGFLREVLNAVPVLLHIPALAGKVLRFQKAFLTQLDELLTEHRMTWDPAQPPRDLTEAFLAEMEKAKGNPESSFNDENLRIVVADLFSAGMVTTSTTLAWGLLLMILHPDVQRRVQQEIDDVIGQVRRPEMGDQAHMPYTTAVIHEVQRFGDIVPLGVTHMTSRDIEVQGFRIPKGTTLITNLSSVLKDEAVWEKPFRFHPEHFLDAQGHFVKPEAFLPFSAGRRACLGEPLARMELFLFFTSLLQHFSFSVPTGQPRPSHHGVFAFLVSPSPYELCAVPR

Cytochrome P450 2C19 = Cytochrome P450 2C19 (Homo sapiens, UniProt P33261); assay: Cytochrome panel assay with activity outcomes. Panel member name: p450-cyp2c19 Compounds with AC50 equal or less than 10 uM are considered active; type: functional; settings: read-out: AC50
Chain of Cytochrome P450 2C19 (P33261 whole entry): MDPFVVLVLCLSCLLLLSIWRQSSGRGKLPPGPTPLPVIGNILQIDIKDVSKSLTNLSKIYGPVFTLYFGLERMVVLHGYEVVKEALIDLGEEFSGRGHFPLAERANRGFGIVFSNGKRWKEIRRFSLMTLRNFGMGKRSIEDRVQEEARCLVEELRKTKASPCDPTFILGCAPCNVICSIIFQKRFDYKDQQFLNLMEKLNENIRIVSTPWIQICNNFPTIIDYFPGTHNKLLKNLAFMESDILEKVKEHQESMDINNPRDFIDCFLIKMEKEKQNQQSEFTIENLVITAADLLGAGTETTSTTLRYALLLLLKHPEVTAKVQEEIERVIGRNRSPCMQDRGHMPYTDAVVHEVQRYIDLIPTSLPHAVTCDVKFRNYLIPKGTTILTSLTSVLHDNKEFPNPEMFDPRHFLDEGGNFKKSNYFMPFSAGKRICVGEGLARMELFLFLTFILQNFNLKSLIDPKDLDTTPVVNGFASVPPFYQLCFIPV

Cytochrome P450 1A2 = target: T2, Cytochrome P450 1A2 (Homo sapiens, UniProt P05177);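 further: PubChem cytochrome P450 panel assay, CYP1A2 panel member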
T2 sequence (P05177 whole entry): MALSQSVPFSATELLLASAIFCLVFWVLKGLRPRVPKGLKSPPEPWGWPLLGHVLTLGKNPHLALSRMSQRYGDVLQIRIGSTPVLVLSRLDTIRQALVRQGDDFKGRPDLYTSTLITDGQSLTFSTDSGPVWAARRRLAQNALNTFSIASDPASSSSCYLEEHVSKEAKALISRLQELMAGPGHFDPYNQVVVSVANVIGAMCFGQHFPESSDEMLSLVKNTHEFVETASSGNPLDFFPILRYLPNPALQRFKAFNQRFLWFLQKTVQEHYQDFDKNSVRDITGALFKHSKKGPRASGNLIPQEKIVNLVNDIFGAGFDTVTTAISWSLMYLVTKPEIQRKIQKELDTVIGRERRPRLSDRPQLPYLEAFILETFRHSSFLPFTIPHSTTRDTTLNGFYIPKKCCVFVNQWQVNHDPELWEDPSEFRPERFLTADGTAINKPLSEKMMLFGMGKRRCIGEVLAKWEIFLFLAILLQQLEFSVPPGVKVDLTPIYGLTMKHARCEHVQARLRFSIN

[3] = Luminescence Cell-Based Dose Confirmation HTS to Identify Activators of 5'UTR Stem-Loop Driven Alpha-Synuclein mRNA Translation in H4 Neuroglioblastoma Cells. [Related pubchem assays: 1829 (Project Summary), 1814 (Primary HTS)]; type: functional
H4 = assay: Luminescence Cell-Based Dose Response HTS to Identify Activators of 5'UTR Stem-Loop Driven Prion Protein mRNA Translation in H4 Neuroglioblastoma Cells. [Related pubchem assays: 1829 (Project Summary), 1814 (Primary HTS)]; type: functional; settings: Homo sapiens
[4] = Luminescence Cell-Based Dose Response HTS to Identify Activators of Luciferase Translation or Activity in H4 […] Cells. [Related pubchem assays: 1829 (Project Summary), 1814 (Primary HTS)]; type: functional
Cytochrome P450 3A4 = Cytochrome P450 3A4 (Homo sapiens, UniProt P08684);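 further: CYP3A4 tested as one member of a cytochrome P450 panel screen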
Chain of Cytochrome P450 3A4 (P08684 whole entry): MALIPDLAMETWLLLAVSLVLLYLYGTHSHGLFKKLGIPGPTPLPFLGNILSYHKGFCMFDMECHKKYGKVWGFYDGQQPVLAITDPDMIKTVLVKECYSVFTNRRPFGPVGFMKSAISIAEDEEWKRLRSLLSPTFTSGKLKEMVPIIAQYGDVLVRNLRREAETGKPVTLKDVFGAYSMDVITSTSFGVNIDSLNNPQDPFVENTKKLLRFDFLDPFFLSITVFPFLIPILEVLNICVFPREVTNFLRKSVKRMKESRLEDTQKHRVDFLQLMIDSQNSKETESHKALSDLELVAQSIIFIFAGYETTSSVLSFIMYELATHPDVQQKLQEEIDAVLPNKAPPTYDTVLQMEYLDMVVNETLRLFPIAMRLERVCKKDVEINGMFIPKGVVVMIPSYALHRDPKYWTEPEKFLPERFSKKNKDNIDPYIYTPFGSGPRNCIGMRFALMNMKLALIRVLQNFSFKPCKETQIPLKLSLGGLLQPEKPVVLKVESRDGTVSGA

Nc1c(C(=O)N2CCCCCC2)oc2ccccc12
IC50 [1]: > 47.1 µM (inactive)
EC50 [2]: > 53 µM (inactive)

CCC(=C(CC)c1ccc(O)cc1)c1ccc(O)cc1 [DIETHYLSTILBESTROL]
AC50 (Cytochrome P450 2C9): 12.6 µM (active)
AC50 (Cytochrome P450 2D6): 15.8 µM (inconclusive)
AC50 (Cytochrome P450 2C19): 15.8 µM (inconclusive)
AC50 (Cytochrome P450 1A2): 15.8 µM (active)

Nc1c2c(nc3ccccc13)CCN(Cc1ccccc1)C2
EC50 [2]: > 53 µM (inactive)

O=C(/C=C/c1ccccc1)NNC(=O)c1cccnc1
AC50 (Cytochrome P450 2C9): 7.08 µM (inconclusive)
AC50 (Cytochrome P450 2C19): 31.6 µM (inconclusive)

Cc1ccccc1N(CC(=O)N1CCN(Cc2ccccc2)CC1)S(C)(=O)=O
IC50 [1]: > 47.1 µM (inactive)
EC50 [2]: > 53 µM (inactive)

CC(=O)c1ccc(N(C(=O)Cn2nnc3ccccc32)C(C(=O)NCc2ccccc2)c2ccccn2)cc1 (configuration not stated)
EC50 [3]: > 120 µM (not active)
EC50 (H4): > 120 µM (not active)
EC50 [4]: 8.14 µM (active)

CCCCCC/C(C)=C1/SC(=S)NC1=O
AC50 (Cytochrome P450 2D6): 28.2 µM (inconclusive)

COc1ccc(CCNC(=O)c2nnn(CC(=O)Nc3ccccc3C)c2N)cc1OC
AC50 (Cytochrome P450 2C19): 17.8 µM (inconclusive)

COc1ccc(N2CCN(CCCNC(=O)CN3CCN(Cc4ccccc4C)C3=O)CC2)cc1
IC50 [1]: > 47.1 µM (inactive)
EC50 [2]: > 53 µM (inactive)

Cc1cc2c(nc1C)CCCCN2C[C@H](O)CN1CCCc2nc(-c3ccc(Br)cc3)ccc21
AC50 (Cytochrome P450 2C9): 3.98 µM (inconclusive)
AC50 (Cytochrome P450 2D6): 3.16 µM (inconclusive)

COC(=O)C1=C(C)NC(C)=C(C(=O)OC(C)C)[C@H]1c1cccc2nonc12 [(S)-ISRADIPINE]
AC50 (Cytochrome P450 1A2): 12.6 µM (inconclusive)

COC(=O)C1CSc2[nH]c(=O)sc2C1c1ccc(O)c(OC)c1 (configuration not stated)
IC50 [1]: > 47.1 µM (inactive)
EC50 [2]: > 53 µM (inactive)

O=C(NCC1CCCO1)C(c1cccnc1)N(C(=O)Cc1cccs1)c1ccccc1 (configuration not stated)
AC50 (Cytochrome P450 2C9): 15.8 µM (inconclusive)
AC50 (Cytochrome P450 2D6): 15.8 µM (inconclusive)
AC50 (Cytochrome P450 2C19): 17.8 µM (inconclusive)

O=[N+]([O-])c1cccc(/N=C/C=C(/O)c2ccco2)c1
EC50 [3]: 1.14 µM (active)
EC50 (H4): > 120 µM (not active)
EC50 [4]: 17 µM (active)

Cc1ccc(S(=O)(=O)NN=C(S)Nc2cccc(F)c2)cc1
IC50 [1]: > 47.1 µM (inactive)
EC50 [2]: > 53 µM (inactive)

Oc1nc2cc(Cl)ccc2c(O)c1-c1ccc(Oc2ccccc2)cc1
AC50 (Cytochrome P450 3A4): 10 µM (inconclusive)
AC50 (Cytochrome P450 1A2): 10 µM (inconclusive)

Cc1cc(NC(=O)CSc2nc3c(C)cccc3cc2C#N)no1
EC50 [3]: 47.9 µM (active)
EC50 (H4): 16.1 µM (active)
EC50 [4]: > 120 µM (not active)

[O-]c1c[n+](CC[n+]2cc([O-])on2)no1
AC50 (Cytochrome P450 1A2): 2.51 µM (inconclusive)

C=CCn1c(SCC(=O)N2CC(=O)Nc3ccccc32)nc2scc(-c3ccccc3)c2c1=O
AC50 (Cytochrome P450 1A2): 14.1 µM (inconclusive)

CCOc1ccccc1NC(=O)C1CCC(=O)N1S(=O)(=O)c1ccc(C)cc1 (configuration not stated)
IC50 [1]: > 47.1 µM (inactive)
EC50 [2]: > 53 µM (inactive)

NC(=S)c1ccc[n+]([C@@H]2O[C@@H](COP(=O)([O-])OP(=O)(O)OC[C@@H]3O[C@@H](n4cnc5c(N)ncnc54)[C@@H](OP(=O)(O)O)[C@H]3O)[C@@H](O)[C@H]2O)c1
AC50 (Cytochrome P450 1A2): 39.8 µM (inconclusive)

CC(C)CN1CC[C@@]2(CCCN(C(=O)Oc3ccccc3)C2)C1
AC50 (Cytochrome P450 2C9): 31.6 µM (inconclusive)
AC50 (Cytochrome P450 1A2): 15.8 µM (inconclusive)

CC1=CC(C)(C(Cl)(Cl)Cl)C(C)=CC1=NO (configuration not stated)
IC50 [1]: > 47.1 µM (inactive)
EC50 [2]: > 53 µM (inactive)

COc1cccc(Cn2c(=O)c(-c3ccc(Cl)cc3)nc3cnc(OC)nc32)c1
AC50 (Cytochrome P450 2C9): 7.94 µM (inconclusive)
AC50 (Cytochrome P450 2C19): 1.26 µM (inconclusive)
